Legend:
[1] = tested on: beta-galactosidase negative Salmonella enteritidis (RKI 05/07992); type: cell-based; conditions: S. enteritidis (b-gal negative), 24 h, 150 mg/l substrate and 100 mg/l IPTG; for F: Fluorescence of colonies (strength): 366 nm UV; on all read-outs here: key: −: absent; +/−: weak; +: strong; ++: very strong
Protocol: (§1) Nutrient Agar (5 g/l peptone, 5 g/l NaCl, 2 g/l yeast extract, 1 g/l beef extract, 13 g/l agar, pH 7.4) was autoclaved and allowed to cool to 50° C. Then indicators were added to final concentrations of 150 mg/l (from a 20 mg/ml stock solution in DMF).
(§2) Optionally IPTG was added to 100 mg/l (from a 100 mg/ml stock solution in H2O) and plates were poured. Agar plates were inoculated with cultures of beta-galactosidase positive Eschericha coli (NM1) or beta-galactosidase negative Salmonella enteritidis (RKI 05/07992) (pre-grown on nutrient broth for 8-18 hours) and incubated at 37° C. Plates were inspected at 16, 20, 24 and 48 hours and pictures were recorded at 18, 24, and 48 hours with a Digistore 2 Image documentation system (CAMAG) under white light.
(§3) A considerable number of indicators molecules (Table IVa, IVb) and a selection of labile groups (Table IVc) were tested with various microbial species producing different biomarker enzymes (external stimuli, eS). The color of stains ranges from yellow to red.
(§4) Plating media from Example 10 were examined under 366 nm UV irradiation at 16, 20, 24 and 48 hours for fluorescence by means of Digistore 2 Image documentation system (CAMAG). Loops of bacterial cells, grown for 48 hours on Nutrient Agar plates containing 150 mg/l beta-D-galactosidase indicator and 100 mg/l IPTG, were directly streaked into wells of black clear bottom microtiter plates. Fluorescence scans were recorded on a Spectramax M5 (Molecular Devices).

[2] = tested on: beta-galactosidase positive Eschericha coli (NM1); test: IO staining of bacterial colonies on Nutrient Agar (color, fluorescence, localization, growth); on C: Color of colonies (strength): key: −: absent; +/−: weak; +: strong; ++: very strong; on F: Fluorescence of colonies (strength): key: −: absent; +/−: weak; +: strong; ++: very strong; on G: Growth of colonies: key: −: absent; +/−: weak; +: strong; ++: very strong; on L: Localization of stain on colonies: key: −: absent; +/−: weak; +: strong; ++: very strong; type: cell-based, E. coli; conditions: 150 mg/l substrate and 100 mg/l IPTG; for F: Fluorescence of colonies (colour) / G: Growth of colonies / L: Localization of stain on colonies / F: Fluorescence of colonies (strength): 24 h; for F: Fluorescence of colonies (colour) / F: Fluorescence of colonies (strength): 366 nm UV; for C: Color of colonies (colour of stain) / C: Color of colonies (strength): 24 h on Nutrient Agar; for G: Growth of colonies / L: Localization of stain on colonies / F: Fluorescence of colonies (strength) / C: Color of colonies (strength): E. coli
Protocol: as §1, §2, §3, §4

Row | Structure (SMILES) | C: Color of colonies (strength) [1] | F: Fluorescence of colonies (strength) [1] | F: Fluorescence of colonies (colour) [2] | C: Color of colonies (colour of stain) [2] | G: Growth of colonies [2] | L: Localization of stain on colonies [2] | F: Fluorescence of colonies (strength) [2] | C: Color of colonies (strength) [2]
1 | COc1ccc(C(=O)c2ccccc2-n2cc(O[C@@H]3O[C@H](CO)[C@H](O)[C@H](O)[C@H]3O)c3c(Cl)cccc32)c(OC)c1 [Indicator I26a, 4-Chloro-1-[2-(2,4-dimethoxybenzoyl)phenyl]-1H-indol-3-yl-beta-D-galactopyranoside] | − | − | orange | yellow-orange | + | + | +/− | +
2 | O=C(c1ccccc1)c1ccccc1-n1cc(O[C@@H]2O[C@H](CO)[C@H](O)[C@H](O)[C@H]2O)c2ccccc21 [Indicator I19a, 1-(2-Benzoylphenyl)-1H-indol-3-yl-beta-D-galactopyranoside] | − | − | yellow | yellow-orange | + | + | + | +
3 | O=C(O)c1ccc(C(=O)c2ccccc2-n2cc(O[C@@H]3O[C@H](CO)[C@H](O)[C@H](O)[C@H]3O)c3ccc(Cl)cc32)o1 [Indicator I29a, 1-[2-(5-Carboxylfuranoyl)phenyl]-6-chloro-1H-indol-3-yl-beta-D-galactopyranoside] | − | − |  | red | + | − | − | +
4 | O=Cc1ccccc1-n1cc(O[C@@H]2O[C@H](CO)[C@H](O)[C@H](O)[C@H]2O)c2ccccc21 [Indicator I13a, 1-(2-Formylphenyl)-1H-indol-3-yl-beta-D-galactopyranoside] | − | − |  | cream-orange | + | + | − | +/−
5 | COc1ccc(C(C)=O)c(-n2cc(O[C@@H]3O[C@H](CO)[C@H](O)[C@H](O)[C@H]3O)c3ccc(Cl)cc32)c1 [Indicator I18a, 1-(2-Acetyl-5-methoxyphenyl)-6-chloro-1H-indol-3-yl-beta-D-galactopyranoside] | − | − | green | light yellow | + | +/− | +/− | +
6 | O=C(c1ccccc1)c1ccccc1-n1cc(O[C@@H]2O[C@H](CO)[C@H](O)[C@H](O)[C@H]2O)c2c(Cl)cccc21 [Indicator I20a, 1-(2-Benzoylphenyl)-4-chloro-1H-indol-3-yl-beta-D-galactopyranoside] | − | − | orange | orange | + | cryst. | +/− | +/−
7 | COc1ccc(C(=O)c2ccccc2)c(-n2cc(O[C@@H]3O[C@H](CO)[C@H](O)[C@H](O)[C@H]3O)c3ccc(Cl)cc32)c1 [Indicator I24a, 1-(2-Benzoyl-5-methoxyphenyl)-6-chloro-1H-indol-3-yl-beta-D-galactopyranoside] | − | − | yellow-green | dark yellow | + | +/− | + | +
8 | CC(=O)c1ccccc1-n1cc(O[C@@H]2O[C@H](CO)[C@H](O)[C@H](O)[C@H]2O)c2ccccc21 [Indicator I14a, 1-(2-Acetylphenyl)-1H-indol-3-yl-beta-D-galactopyranoside] | − | − |  | light yellow | + | + | − | +
9 | O=C(c1ccco1)c1ccccc1-n1cc(O[C@@H]2O[C@H](CO)[C@H](O)[C@H](O)[C@H]2O)c2ccc(Cl)cc21 [Indicator I30a, 6-Chloro-1-(2-furanoylphenyl)-1H-indol-3-yl-beta-D-galactopyranoside] | − | − | orange-red | dark orange | + | +/− | +/− | ++
10 | CC(=O)c1ccccc1-n1cc(O[C@@H]2O[C@H](CO)[C@H](O)[C@H](O)[C@H]2O)c2c(Cl)c(Br)ccc21 [Indicator I17a, 1-(2-Acetylphenyl)-5-bromo-4-chloro-1H-indol-3-yl-beta-D-galactopyranoside] | − | − |  | yellow-orange | + | + | − | +
